According to patent US20260365698A1, “STAPLED PEPTIDES FOR SENSITIZATION OF CANCER TO TREATMENT” (Purdue Research Foundation, priority 2022, published 2026):
Bridge positions count the residues as written; N and C are the ends. Square brackets hold non-standard residues; d marks the D form. Ends that are not written are not given here. Peptide text beside a SMILES is read from it. S5 = C=CCCC[C@](C)(N)C(=O)O

Tests used:
[1] = tested on: non-small cell lung cancer (NSCLC) cells; details: cited from earlier work
[2] = tested on: MAFG-NRF2 protein complex; details: cited from earlier work
Neh1 domain of NRF2 = details: cited from earlier work
A549 cells = assay: Confocal microscopy of FITC-labeled peptides, cell permeability; format: cell-based; details: FITC-labeled peptide, 100 μM, 90 minutes, A549 cells
Description: To determine whether this was a result of poor cell permeability by compounds N2S and N3S, fluorophore labeled versions of these peptides were generated, and confocal microscopy was used to determine the abilities of these peptides to enter cells (FIG. 5C).
Briefly, A549 cells at 9.5×10^4 cells/ml in 600 μl media were plated on 10 mm glass-bottomed, 24-well plates (Chemglass Life Sciences Cell Culture Plate, 24-Well, Fisher Scientific, Waltham, MA) and cultured for overnight at 37 °C, 5% CO2, in complete growth medium (RPMI supplemented with 10% fetal calf serum, L-glutamine, and non-essential amino acids). The next day, cells were treated with fresh, pre-warmed complete growth medium supplemented with the desired FITC-labeled peptide or DMSO vehicle control at a final concentration of 100 μM FITC labeled peptide and 1% DMSO. After 90 minutes of treatment, cells were washed three times in warm PBS to remove excess peptide from the cell surface and left in modified Krebs-Ringer buffer solution [KRBH: 134 mM NaCl. 3.5 mM KCl. 1.2 mM KH2PO4, 0.5 mM MgSO4, 1.5 mM CaCl2), 5 mM NaHCO3, 10 mM HEPES (pH 7.4)] containing Hoechst stain at 1 μg/ml. Cells were immediately analyzed under a Nikon A1 confocal microscope (Resonant). The images were taken at 20× magnification with fluorescence excitation wavelengths at 409 for the Hoechst and 488 for the FITC. Images were processed using NIS-Elements AR. Dietrich et al., Cell permeable stapled peptide inhibitor of Wnt signaling that targets 0-catenin protein-protein interactions, Cell Chemical Biology 24(8): 958-968.e5 (2017); Dougherty et al., Enhancing the cell-permeability of stapled peptides with a cyclic cell-penetrating peptide, J Medicinal Chemistry 62(22): 10098 (2019).

proteinase K = assay: Proteinase K peptide stability assay; details: 10 μg/mL proteinase K
Description: Data are from three independent replicates with standard error indicated. Scale bar indicates 50 μm.
Peptide stability assays were performed using the protocols described in Cromm et al., Protease-resistant and cell-permeable double-stapled peptides targeting the Rab8a GTPase, ACS Chemical Biology 11(8): 2375-2382 (2016). Briefly, 55 μM of peptide was incubated with 10 μg/mL proteinase K for the indicated timepoints. At the end of each time point, 50 μL of the reaction mixture were quenched in 100 μL of a 1:1 mixture acetonitrile/water+1% formic acid (FA). Samples were injected and analyzed on a Triple quad. Analysis was done using an Agilent Technologies 1200 Series attached to an Agilent Technologies 6460 Triple Quad LC/MS. Analysis was performed with a ZORBAX XDB-C18 […], 2.1×50 mm column (Agilent Technologies, Inc., Santa Clara, CA). Eluent A: H2O with 0.1% FA. Eluent B: MeCN with 0.1% FA. Purity analysis utilized the gradient as follows: (A:B, 0.3 mL/min): 95:5, 0 minutes; 95:5, 1 minute; 5:95, 5 minutes; 5:95, 8 minutes: 95:5, 8.5 minutes; 95:5, 12.5 minutes.

His-MafG = biological target: T1, His-MafG; assay: SPR, pH 7.5
T1 chain: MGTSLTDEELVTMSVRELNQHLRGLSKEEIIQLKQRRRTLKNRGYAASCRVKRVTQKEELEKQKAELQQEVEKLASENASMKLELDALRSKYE

Cc1ccccc1C(=O)N1CCc2cc(-c3nc(NC(=O)Cc4ccc5c(c4)OCO5)sc3C)ccc21 [ML-385]
cytotoxicity in combination with platinum-based drugs, doxorubicin or taxol [1]: substantially enhances cytotoxicity
binding of MAFG-NRF2 complex to regulatory DNA and downstream target gene expression [2]: inhibiting downstream target gene expression
binding to the Neh1 domain of NRF2 (Neh1 domain of NRF2): binds to the Neh1 domain of NRF2

CC(=O)N[C@@H](CC(=O)O)C(=O)N[C@@H](CC(C)C)C(=O)N[C@@H](CC(=O)O)C(=O)N[C@@H](Cc1c[nH]cn1)C(=O)N[C@@H](CC(C)C)C(=O)N[C@@]1(C)CCCC=CCCC[C@@](C)(C(=O)N[C@@H](CCCCN)C(=O)N[C@@H](CC(C)C)C(=O)N[C@@H](CC(C)C)C(=O)N[C@@H](CCCCN)C(=O)N[C@@H](CCC(=O)O)C(=O)N[C@@H](CCCCN)C(N)=O)NC(=O)[C@H](CCCCN)NC(=O)[C@H](CCC(=O)O)NC(=O)[C@H](CC(=O)O)NC1=O [N2S] (Ac-DLDHL[S5]DEK[S5]KLLKEK-NH2; staple 6-10)
cellular and nuclear permeability (A549 cells): good
time at which significant degradation starts (proteinase K; 55 μM peptide): 40 min

CC(=O)N[C@@H](CC(=O)O)C(=O)N[C@@H](CCC(=O)O)C(=O)N[C@@H](CCCCN)C(=O)N[C@@H](CCC(=O)O)C(=O)N[C@@H](CCCCN)C(=O)N[C@@H](CC(C)C)C(=O)N[C@@]1(C)CCCC=CCCC[C@@](C)(C(=O)N[C@@H](CCC(=O)O)C(=O)N[C@@H](CC(N)=O)C(=O)N[C@@H](CC(=O)O)C(=O)N[C@@H](CCCCN)C(=O)N[C@@H](CO)C(N)=O)NC(=O)[C@H](CCCCN)NC(=O)[C@H](CCC(=O)O)NC(=O)[C@H](CCCCN)NC1=O [N3S] (Ac-DEKEKL[S5]KEK[S5]ENDKS-NH2; staple 7-11)
accumulation in the nucleus (A549 cells): very little to no accumulation
cellular permeability (A549 cells): minimal
degradation by proteinase K (proteinase K; for up to 24 hours, 55 μM peptide): no significant degradation

Ac-DEKEKLLKEKGENDKS-NH2 [N3]
degradation of unstapled peptide at shortest timepoint (proteinase K; 30 minutes): completely degraded

Ac-IVELEQDLDHLKDEKE-NH2 [N1]
cellular permeability (A549 cells): poor

B1: N1S (biotin-labeled) (peptide)
chain: IVELE[S5]DLD[S5]LKDEKE
modifications: staple 6-10; also: biotin-labeled
Kd (His-MafG): 337 nM
